Earlier results on one compound are cited in patent publication US20110160158A1, “METHODS OF TREATMENT OF BIPOLAR DISORDER” (REPLIGEN CORPORATION, priority 2008, published 2011).

Each structure is given as a SMILES string.

In series [1] the test system is children with mitochondrial disease. The following applies: 2 g/m^2 three times daily for up to two years; cited from earlier work.
The test system of series [2] is patients undergoing chemotherapy with 5-fluorouracil. To be noted: 6 g four times a day; cited from earlier work.

`CC(=O)OC[C@H]1O[C@@H](n2ccc(=O)[nH]c2=O)[C@H](OC(C)=O)[C@@H]1OC(C)=O` [TAU, Triacetyluridine]: the Adverse events result in series [1] is “no adverse events were reported”. Moreover, the Adverse effects entry in series [2] was “no adverse effects”.
